Values joined by “and” are separate entries in the source; they are usually repeats but may differ in a detail not shown here. Equal entries are not always repeated.
Legend:
SARS-CoV-2 M^pro [1] = molecular target: T1, SARS-CoV-2 M^pro (Severe acute respiratory syndrome coronavirus 2, UniProt P0DTD1); experiment: Mpro FRET inhibition, continuous fluorometric assay (Fluorolog-3), enzyme from pET21-M^pro vector; assay type: biochemical; settings: read-out: Ki (μM)^b
M^pro = M^pro (Severe acute respiratory syndrome coronavirus 2, UniProt P0DTD1); experiment: biochemical; assay type: binding
cathepsin L (CatL) = molecular target: T2, cathepsin L (CatL) (Homo sapiens, UniProt P07711); experiment: Cathepsin L inhibition, fluorometric assay; assay type: biochemical; settings: read-out: Ki CatL
T2 construct: purchased Calbiochem (Merck Millipore)
T2 sequence (P07711 114-288 limits assumed): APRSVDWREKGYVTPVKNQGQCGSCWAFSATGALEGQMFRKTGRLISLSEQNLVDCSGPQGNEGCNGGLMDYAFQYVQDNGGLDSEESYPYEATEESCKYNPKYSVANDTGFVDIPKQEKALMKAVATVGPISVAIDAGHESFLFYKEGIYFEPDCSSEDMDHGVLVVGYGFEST
T2 sequence (P07711 292-333 limits assumed): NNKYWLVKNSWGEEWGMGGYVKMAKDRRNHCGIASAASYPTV

SARS-CoV-2 M^pro [2] = molecular target: T1, SARS-CoV-2 M^pro; experiment: biochemical; settings: M^pro from pMal-M^pro vector
[3] = molecular target: human matriptase (MT-SP1) (Homo sapiens, UniProt Q9Y5Y6); experiment: Matriptase inhibition, fluorometric assay; assay type: biochemical; settings: 20 μM
Sequence of human matriptase (MT-SP1) (Q9Y5Y6 615-855 limits assumed, other chains not shown): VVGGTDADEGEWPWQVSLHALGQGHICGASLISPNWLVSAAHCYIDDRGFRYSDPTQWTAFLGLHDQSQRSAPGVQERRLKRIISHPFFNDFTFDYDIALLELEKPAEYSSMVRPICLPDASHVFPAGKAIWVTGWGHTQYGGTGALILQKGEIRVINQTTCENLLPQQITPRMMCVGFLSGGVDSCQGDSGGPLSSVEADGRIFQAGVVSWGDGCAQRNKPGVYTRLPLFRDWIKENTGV

bovine trypsin = molecular target: T3, bovine trypsin (Bos taurus, UniProt P00760); assay type: biochemical; settings: 20 μM
T3 construct: purchased Sigma-Aldrich
T3 sequence (P00760 24-246): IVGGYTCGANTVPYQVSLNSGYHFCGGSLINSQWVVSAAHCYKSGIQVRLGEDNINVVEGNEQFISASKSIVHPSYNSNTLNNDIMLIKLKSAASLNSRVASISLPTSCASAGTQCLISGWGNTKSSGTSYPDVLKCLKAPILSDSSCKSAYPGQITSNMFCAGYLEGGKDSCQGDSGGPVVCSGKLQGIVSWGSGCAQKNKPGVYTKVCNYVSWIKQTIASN

SARS-CoV-2 = experiment: microbe, parasite or virus in culture; assay type: cell-based; settings: for virus titer Mean (%): mean of Exp.1-3
[4] = molecular target: Zika Virus NS2B/NS3 (bZiPro) (Zika virus, UniProt A0A024B7W1); experiment: Zika virus protease inhibition, fluorometric assay; assay type: biochemical; settings: 20 μM
Sequence of Zika Virus NS2B/NS3 (bZiPro) (A0A024B7W1 1425-1464): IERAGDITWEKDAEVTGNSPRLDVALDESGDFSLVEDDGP
Sequence of Zika Virus NS2B/NS3 (bZiPro) (A0A024B7W1 1503-1680): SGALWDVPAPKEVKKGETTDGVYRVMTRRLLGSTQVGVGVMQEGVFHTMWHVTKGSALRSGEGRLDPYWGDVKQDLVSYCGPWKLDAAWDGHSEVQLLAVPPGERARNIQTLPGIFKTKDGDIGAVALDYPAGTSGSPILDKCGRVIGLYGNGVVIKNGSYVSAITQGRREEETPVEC

COc1cccc2[nH]c(C(=O)N[C@@H](CC(C)C)C(=O)N[C@H](/C=C/[N+](=O)[O-])C[C@@H]3CCNC3=O)cc12 [FGA146]
Ki (SARS-CoV-2 M^pro [1]): 0.96 ± 0.06 µM | Tm of M^pro (M^pro): 45.0 ± 0.2 °C and 42.8 ± 0.1 °C | DTm (°C) (M^pro; 25 mM): -4.2 °C | Fraction unfolded (M^pro; 25 mM, 21.5 °C): -0.01003 | Fraction unfolded (M^pro; 25 mM, 22 °C): -0.02886 | Fraction unfolded (M^pro; 25 mM, 22.5 °C): -0.03599 | Fraction unfolded (M^pro; 25 mM, 23 °C): -0.01149 | Fraction unfolded (M^pro; 25 mM, 23.5 °C): 0.01389 | Fraction unfolded (M^pro; 25 mM, 24 °C): 0.08488 | Fraction unfolded (M^pro; 25 mM, 24.5 °C): 0.03781 | Fraction unfolded (M^pro; 25 mM, 25 °C): -0.07553 | Fraction unfolded (M^pro; 25 mM, 25.5 °C): 0.01064 | Fraction unfolded (M^pro; 25 mM, 26 °C): 0.08908 | Fraction unfolded (M^pro; 25 mM, 26.5 °C): 0.04267 | Fraction unfolded (M^pro; 25 mM, 27 °C): -0.01602 | Fraction unfolded (M^pro; 25 mM, 27.5 °C): 0.0059 | Fraction unfolded (M^pro; 25 mM, 28 °C): -0.0719 | Fraction unfolded (M^pro; 25 mM, 28.5 °C): 0.01153 | Fraction unfolded (M^pro; 25 mM, 29 °C): -0.09309 | Fraction unfolded (M^pro; 25 mM, 29.5 °C): -0.02786 | Fraction unfolded (M^pro; 25 mM, 30 °C): -0.01911 | Fraction unfolded (M^pro; 25 mM, 30.5 °C): 0.07168 | Fraction unfolded (M^pro; 25 mM, 31 °C): 0.0139 | Fraction unfolded (M^pro; 25 mM, 32 °C): -0.02402 | Fraction unfolded (M^pro; 25 mM, 32.5 °C): 0.02054 | Fraction unfolded (M^pro; 25 mM, 66.5 °C): 0.9674 | Fraction unfolded (M^pro; 25 mM, 67 °C): 1.009 | Fraction unfolded (M^pro; 25 mM, 67.5 °C): 1.012 | Fraction unfolded (M^pro; 25 mM, 68 °C): 1.038 | Fraction unfolded (M^pro; 25 mM, 68.5 °C): 1.026 | Fraction unfolded (M^pro; 25 mM, 69 °C): 1.004 | Fraction unfolded (M^pro; 25 mM, 69.5 °C): 1.031 | Fraction unfolded (M^pro; 25 mM, 70 °C): 1.005 | Fraction unfolded (M^pro; 25 mM, 70.5 °C): 0.9826 | Fraction unfolded (M^pro; 25 mM, 71 °C): 1.014 | Fraction unfolded (M^pro; 25 mM, 71.5 °C): 1.05 | Fraction unfolded (M^pro; 25 mM, 72 °C): 1.03 | Fraction unfolded (M^pro; 25 mM, 72.5 °C): 1.006 | Fraction unfolded (M^pro; 25 mM, 73 °C): 1.029 | Fraction unfolded (M^pro; 25 mM, 73.5 °C): 0.9779 | Fraction unfolded (M^pro; 25 mM, 74 °C): 1.013 | Fraction unfolded (M^pro; 25 mM, 74.5 °C): 1.064 | Fraction unfolded (M^pro; 25 mM, 75 °C): 1.029 | Fraction unfolded (M^pro; 25 mM, 75.5 °C): 1.031 | Fraction unfolded (M^pro; 25 mM, 76 °C): 1.031 | Fraction unfolded (M^pro; 25 mM, 76.5 °C): 0.9806 | Fraction unfolded (M^pro; 25 mM, 77 °C): 1.015 | Fraction unfolded (M^pro; 25 mM, 77.5 °C): 1.011 | Fraction unfolded (M^pro; 25 mM, 78 °C): 1.0092 | Fraction unfolded (M^pro; 25 mM, 78.5 °C): 1.012 | Fraction unfolded (M^pro; 25 mM, 79 °C): 1.059 | Fraction unfolded (M^pro; 25 mM, 79.5 °C): 0.9461 | Fraction unfolded (M^pro; 25 mM, 80 °C): 1.0063 | DTm (°C) (M^pro; 100 mM): -6.4 °C | Fraction unfolded (M^pro; 100 mM, 21.5 °C): -0.0719 | Fraction unfolded (M^pro; 100 mM, 22 °C): 0.01153 | Fraction unfolded (M^pro; 100 mM, 22.5 °C): -0.09309 | Fraction unfolded (M^pro; 100 mM, 23 °C): -0.02786 | Fraction unfolded (M^pro; 100 mM, 23.5 °C): -0.01911 | Fraction unfolded (M^pro; 100 mM, 24 °C): 0.07168 | Fraction unfolded (M^pro; 100 mM, 24.5 °C): 0.0139 | Fraction unfolded (M^pro; 100 mM, 25 °C): 0.01178 | Fraction unfolded (M^pro; 100 mM, 25.5 °C): -0.02402 | Fraction unfolded (M^pro; 100 mM, 26 °C): 0.02054 | Fraction unfolded (M^pro; 100 mM, 26.5 °C): 0.0786 | Fraction unfolded (M^pro; 100 mM, 27 °C): -0.05017 | Fraction unfolded (M^pro; 100 mM, 27.5 °C): -0.00904 | Fraction unfolded (M^pro; 100 mM, 28 °C): -0.01003 | Fraction unfolded (M^pro; 100 mM, 28.5 °C): -0.02886 | Fraction unfolded (M^pro; 100 mM, 29 °C): -0.03599 | Fraction unfolded (M^pro; 100 mM, 29.5 °C): -0.01149 | Fraction unfolded (M^pro; 100 mM, 30 °C): 0.01389 | Fraction unfolded (M^pro; 100 mM, 30.5 °C): 0.08488 | Fraction unfolded (M^pro; 100 mM, 31 °C): 0.03781 | Fraction unfolded (M^pro; 100 mM, 32 °C): 0.01064 | Fraction unfolded (M^pro; 100 mM, 32.5 °C): 0.08908 | Fraction unfolded (M^pro; 100 mM, 66.5 °C): 1.038 | Fraction unfolded (M^pro; 100 mM, 67 °C): 1.026 | Fraction unfolded (M^pro; 100 mM, 67.5 °C): 1.004 | Fraction unfolded (M^pro; 100 mM, 68 °C): 1.031 | Fraction unfolded (M^pro; 100 mM, 68.5 °C): 1.005 | Fraction unfolded (M^pro; 100 mM, 69 °C): 0.9826 | Fraction unfolded (M^pro; 100 mM, 69.5 °C): 1.014 | Fraction unfolded (M^pro; 100 mM, 70 °C): 1.04 | Fraction unfolded (M^pro; 100 mM, 70.5 °C): 0.9664 | Fraction unfolded (M^pro; 100 mM, 71 °C): 0.9851 | Fraction unfolded (M^pro; 100 mM, 71.5 °C): 0.9877 | Fraction unfolded (M^pro; 100 mM, 72 °C): 0.9881 | Fraction unfolded (M^pro; 100 mM, 72.5 °C): 1.095 | Fraction unfolded (M^pro; 100 mM, 73 °C): 0.9972 | Fraction unfolded (M^pro; 100 mM, 73.5 °C): 1.057 | Fraction unfolded (M^pro; 100 mM, 74 °C): 0.8905 | Fraction unfolded (M^pro; 100 mM, 74.5 °C): 1.0309 | Fraction unfolded (M^pro; 100 mM, 75 °C): 0.9492 | Fraction unfolded (M^pro; 100 mM, 75.5 °C): 0.9161 | Fraction unfolded (M^pro; 100 mM, 76 °C): 1.007 | Fraction unfolded (M^pro; 100 mM, 76.5 °C): 1.02 | Fraction unfolded (M^pro; 100 mM, 77 °C): 1.017 | Fraction unfolded (M^pro; 100 mM, 77.5 °C): 1.029 | Fraction unfolded (M^pro; 100 mM, 78 °C): 1.021 | Fraction unfolded (M^pro; 100 mM, 78.5 °C): 1.059 | Fraction unfolded (M^pro; 100 mM, 79 °C): 0.9805 | Fraction unfolded (M^pro; 100 mM, 79.5 °C): 0.9855 | Fraction unfolded (M^pro; 100 mM, 80 °C): 1.001 | Ki (cathepsin L (CatL)): 868 ± 60 nM | Ki (SARS-CoV-2 M^pro [2]): 2.19 ± 0.18 µM | MT-SP1 [3]: n.i. (no inhibition (<10%) was observed at a concentration of 20 μM) | relative activity compared to the DMSO control (bovine trypsin): 112.5±16.9% | EC50 (SARS-CoV-2; Huh-7-ACE2, 24h p.t., […]): 900 nM | virus titer Mean (%) (SARS-CoV-2; conc 0.1): 133.333% | virus titer Mean (%) (SARS-CoV-2; conc 0.5): 86.6667% | virus titer (%) of conc 0 (SARS-CoV-2; conc 0.5, single experiments): 100% and 60% | virus titer (pfu/ml) (SARS-CoV-2; conc 0.5, single experiments): 1000000 pfu/ml and 1200000 pfu/ml | virus titer Mean (%) (SARS-CoV-2; conc 1): 22.5% | virus titer Mean (%) (SARS-CoV-2; conc 5): 0.1667% | virus titer (%) of conc 0 (SARS-CoV-2; conc 5, single experiments): 0.4% and 0.04% and 0.06% | virus titer Mean (%) (SARS-CoV-2; conc 10): 0.1023% | virus titer (%) of conc 0 (SARS-CoV-2; conc 10, single experiments): 0.12% and 0.18% and 0.007% | virus titer Mean (%) (SARS-CoV-2; conc 50): 0.02533% | virus titer (%) of conc 0 (SARS-CoV-2; conc 50, single experiments): 0.06% and 0.014% and 0.002% | virus titer Mean (%) (SARS-CoV-2; conc 100): 0.02033% | virus titer (%) of conc 0 (SARS-CoV-2; conc 100, single experiments): 0.04% and 0.018% and 0.003% | bZiPro [4]: n.i. (no inhibition (<10%) was observed at a concentration of 20 μM)

From PMC10796436, “Peptidyl nitroalkene inhibitors of main protease rationalized by computational and crystallographic investigations as antivirals against SARS-CoV-2” (Communications Chemistry, 2024)
